According to ChEMBL document CHEMBL3885861, “Open TG-GATES”:

Species: Rattus norvegicus
Assay: Open TG-GATES - Regimen: Single
Type: toxicity, organism-based, Sprague-Dawley
Parameters: regimen Single, gender Male, age 6 weeks
Settings: in vivo, po, 150 mg/kg, route gavage, dose level Middle; for APTT / Bas / Eos / Fbg / Hb / Ht / Lym / MCH / MCHC / MCV / Mono / Neu / PT / Plat / RBC / Ret / WBC: tissue Blood; for KIDNEY_L / KIDNEY_R / KIDNEY_TOTAL: tissue Kidney; for LIVER: tissue Liver; for A/G / ALP / ALT / AST / BUN / CRE / Ca / Cl / DBIL / GLC / IP / K / LDH / Na / PL / RALB / TBIL / TC / TG / TP / gamma-GTP: tissue Plasma

CCC1(c2ccccc2)C(=O)NC(=O)NC1=O [PHENOBARBITAL]
TERMINAL_BW (3 h): 224.5 g
APTT (3 h): 19.1 s
Bas (3 h): 0.4%
Eos (3 h): 1%
Fbg (3 h): 217.2 mg/dL
Hb (3 h): 13.8 g/dL
Ht (3 h): 38.5%
Lym (3 h): 82.4%
MCH (3 h): 21.6 pg
MCHC (3 h): 35.8%
MCV (3 h): 60.4 fL
Mono (3 h): 3%
Neu (3 h): 12.6%
PT (3 h): 12 s
Plat (3 h): 129.5 x10_4/uL
RBC (3 h): 637.8 x10_4/ul
Ret (3 h): 7.8%
WBC (3 h): 81.1 x10_2/uL
KIDNEY_L (3 h): 1 g
KIDNEY_R (3 h): 1 g
KIDNEY_TOTAL (3 h): 2 g
LIVER (3 h): 10.3 g
A/G (3 h): 1.7
ALP (3 h): 765.6 IU/L
ALT (3 h): 39 IU/L
AST (3 h): 66.4 IU/L
BUN (3 h): 8.8 mg/dL
CRE (3 h): 0.3 mg/dL
Ca (3 h): 10.7 mg/dL
Cl (3 h): 101.2 meq/L
DBIL (3 h): 0.064 mg/dL
GLC (3 h): 184.4 mg/dL
IP (3 h): 9.8 mg/dL
K (3 h): 4.4 meq/L
LDH (3 h): 149.4 IU/L
Na (3 h): 139.8 meq/L
PL (3 h): 145.4 mg/dL
RALB (3 h): 3.3 g/dL
TBIL (3 h): 0.1 mg/dL
TC (3 h): 71.4 mg/dL
TG (3 h): 73.2 mg/dL
TP (3 h): 5.3 g/dL
gamma-GTP (3 h): 1 IU/L
TERMINAL_BW (6 h): 221.3 g
APTT (6 h): 20.4 s
Bas (6 h): 0.2%
Eos (6 h): 0.6%
Fbg (6 h): 226 mg/dL
Hb (6 h): 13.8 g/dL
Ht (6 h): 38.1%
Lym (6 h): 79%
MCH (6 h): 21.5 pg
MCHC (6 h): 36.3%
MCV (6 h): 59.3 fL
Mono (6 h): 3%
Neu (6 h): 15.4%
PT (6 h): 12 s
Plat (6 h): 125.8 x10_4/uL
RBC (6 h): 643 x10_4/ul
Ret (6 h): 7.6%
WBC (6 h): 90 x10_2/uL
KIDNEY_L (6 h): 1 g
KIDNEY_R (6 h): 1 g
KIDNEY_TOTAL (6 h): 2 g
LIVER (6 h): 9.3 g
A/G (6 h): 1.5
ALP (6 h): 756.8 IU/L
ALT (6 h): 28.4 IU/L
AST (6 h): 60.8 IU/L
BUN (6 h): 8.2 mg/dL
CRE (6 h): 0.4 mg/dL
Ca (6 h): 10.7 mg/dL
Cl (6 h): 100.6 meq/L
DBIL (6 h): 0.07 mg/dL
GLC (6 h): 178.2 mg/dL
IP (6 h): 9.7 mg/dL
K (6 h): 4.2 meq/L
LDH (6 h): 178.4 IU/L
Na (6 h): 139.6 meq/L
PL (6 h): 137 mg/dL
RALB (6 h): 3.2 g/dL
TBIL (6 h): 0.1 mg/dL
TC (6 h): 69.2 mg/dL
TG (6 h): 67.6 mg/dL
TP (6 h): 5.3 g/dL
gamma-GTP (6 h): 1.2 IU/L
TERMINAL_BW (9 h): 219.3 g
APTT (9 h): 20.6 s
Bas (9 h): 0%
Eos (9 h): 0.4%
Fbg (9 h): 215 mg/dL
Hb (9 h): 14.1 g/dL
Ht (9 h): 38.6%
Lym (9 h): 76.6%
MCH (9 h): 22.1 pg
MCHC (9 h): 36.5%
MCV (9 h): 60.5 fL
Mono (9 h): 3%
Neu (9 h): 19%
PT (9 h): 12.2 s
Plat (9 h): 121.6 x10_4/uL
RBC (9 h): 637.8 x10_4/ul
Ret (9 h): 7.7%
WBC (9 h): 96.4 x10_2/uL
KIDNEY_L (9 h): 1 g
KIDNEY_R (9 h): 1 g
KIDNEY_TOTAL (9 h): 2 g
LIVER (9 h): 9.3 g
A/G (9 h): 1.7
ALP (9 h): 593.2 IU/L
ALT (9 h): 26.6 IU/L
AST (9 h): 58.6 IU/L
BUN (9 h): 6.8 mg/dL
CRE (9 h): 0.3 mg/dL
Ca (9 h): 10.4 mg/dL
Cl (9 h): 100 meq/L
DBIL (9 h): 0.066 mg/dL
GLC (9 h): 182 mg/dL
IP (9 h): 9.5 mg/dL
K (9 h): 4.1 meq/L
LDH (9 h): 136 IU/L
Na (9 h): 139.8 meq/L
PL (9 h): 138.8 mg/dL
RALB (9 h): 3.3 g/dL
TBIL (9 h): 0.1 mg/dL
TC (9 h): 70 mg/dL
TG (9 h): 39 mg/dL
TP (9 h): 5.2 g/dL
gamma-GTP (9 h): 1 IU/L
TERMINAL_BW (24 h): 234 g
APTT (24 h): 19.2 s
Bas (24 h): 0.8%
Eos (24 h): 1%
Fbg (24 h): 214.2 mg/dL
Hb (24 h): 13.9 g/dL
Ht (24 h): 38.4%
Lym (24 h): 79.6%
MCH (24 h): 21.8 pg
MCHC (24 h): 36.2%
MCV (24 h): 60.3 fL
Mono (24 h): 2.2%
Neu (24 h): 16%
PT (24 h): 11.7 s
Plat (24 h): 125.7 x10_4/uL
RBC (24 h): 637 x10_4/ul
Ret (24 h): 6.5%
WBC (24 h): 106.3 x10_2/uL
KIDNEY_L (24 h): 1.1 g
KIDNEY_R (24 h): 1 g
KIDNEY_TOTAL (24 h): 2.1 g
LIVER (24 h): 11.5 g
A/G (24 h): 1.6
ALP (24 h): 882.2 IU/L
ALT (24 h): 33.8 IU/L
AST (24 h): 75.6 IU/L
BUN (24 h): 16 mg/dL
CRE (24 h): 0.4 mg/dL
Ca (24 h): 10.8 mg/dL
Cl (24 h): 102 meq/L
DBIL (24 h): 0.058 mg/dL
GLC (24 h): 180.6 mg/dL
IP (24 h): 7.6 mg/dL
K (24 h): 4.2 meq/L
LDH (24 h): 264.4 IU/L
Na (24 h): 142.4 meq/L
PL (24 h): 142.2 mg/dL
RALB (24 h): 3.5 g/dL
TBIL (24 h): 0.1 mg/dL
TC (24 h): 72 mg/dL
TG (24 h): 113.2 mg/dL
TP (24 h): 5.7 g/dL
gamma-GTP (24 h): 1.2 IU/L
